pIC50: −log10 of the molar value.
What was measured:
ALK = target: T1, ALK (Homo sapiens, UniProt Q9UM73); assay: ALK Kinase Assay (ELISA/TRF, PLC-γ substrate); assay type: biochemical; settings: ALK kinase inhibition, 1 μM ATP; read-out: ALK Potency
T1 construct: host or cells: baculovirus expression system
Procedure, shortened: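 PLC-γ coat 10 μg/mL in TBS; ALK 30 ng/ml added to start; 37° C, 15 min; Eu-N1 PT66 antibody detection (TRF). IC50: % inhibition vs log10 [cpd], variable-slope sigmoidal fit.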

JAK2 = target: T2, JAK2 (Homo sapiens, UniProt O60674); assay: Recombinant Human JAK2 Kinase Assay (TRF); assay type: biochemical; settings: JAK2 kinase inhibition, 0.2 μM ATP; read-out: JAK2 Potency
T2 construct: host or cells: baculovirus expression system
Procedure, shortened: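 Baculovirus-expressed JAK2 (15 ng/ml) phosphorylated a biotinylated 15-mer peptide captured on Neutravidin, in 20 mM HEPES pH 7.2, 0.2 μM ATP, 1 mM MnCl2, 0.1% BSA, 2.5% DMSO final, 20 min at room temperature. Phosphoproduct detected by time-resolved fluorescence with Eu-N1-labelled PY100 antibody.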

T1 sequence (Q9UM73 19-1620): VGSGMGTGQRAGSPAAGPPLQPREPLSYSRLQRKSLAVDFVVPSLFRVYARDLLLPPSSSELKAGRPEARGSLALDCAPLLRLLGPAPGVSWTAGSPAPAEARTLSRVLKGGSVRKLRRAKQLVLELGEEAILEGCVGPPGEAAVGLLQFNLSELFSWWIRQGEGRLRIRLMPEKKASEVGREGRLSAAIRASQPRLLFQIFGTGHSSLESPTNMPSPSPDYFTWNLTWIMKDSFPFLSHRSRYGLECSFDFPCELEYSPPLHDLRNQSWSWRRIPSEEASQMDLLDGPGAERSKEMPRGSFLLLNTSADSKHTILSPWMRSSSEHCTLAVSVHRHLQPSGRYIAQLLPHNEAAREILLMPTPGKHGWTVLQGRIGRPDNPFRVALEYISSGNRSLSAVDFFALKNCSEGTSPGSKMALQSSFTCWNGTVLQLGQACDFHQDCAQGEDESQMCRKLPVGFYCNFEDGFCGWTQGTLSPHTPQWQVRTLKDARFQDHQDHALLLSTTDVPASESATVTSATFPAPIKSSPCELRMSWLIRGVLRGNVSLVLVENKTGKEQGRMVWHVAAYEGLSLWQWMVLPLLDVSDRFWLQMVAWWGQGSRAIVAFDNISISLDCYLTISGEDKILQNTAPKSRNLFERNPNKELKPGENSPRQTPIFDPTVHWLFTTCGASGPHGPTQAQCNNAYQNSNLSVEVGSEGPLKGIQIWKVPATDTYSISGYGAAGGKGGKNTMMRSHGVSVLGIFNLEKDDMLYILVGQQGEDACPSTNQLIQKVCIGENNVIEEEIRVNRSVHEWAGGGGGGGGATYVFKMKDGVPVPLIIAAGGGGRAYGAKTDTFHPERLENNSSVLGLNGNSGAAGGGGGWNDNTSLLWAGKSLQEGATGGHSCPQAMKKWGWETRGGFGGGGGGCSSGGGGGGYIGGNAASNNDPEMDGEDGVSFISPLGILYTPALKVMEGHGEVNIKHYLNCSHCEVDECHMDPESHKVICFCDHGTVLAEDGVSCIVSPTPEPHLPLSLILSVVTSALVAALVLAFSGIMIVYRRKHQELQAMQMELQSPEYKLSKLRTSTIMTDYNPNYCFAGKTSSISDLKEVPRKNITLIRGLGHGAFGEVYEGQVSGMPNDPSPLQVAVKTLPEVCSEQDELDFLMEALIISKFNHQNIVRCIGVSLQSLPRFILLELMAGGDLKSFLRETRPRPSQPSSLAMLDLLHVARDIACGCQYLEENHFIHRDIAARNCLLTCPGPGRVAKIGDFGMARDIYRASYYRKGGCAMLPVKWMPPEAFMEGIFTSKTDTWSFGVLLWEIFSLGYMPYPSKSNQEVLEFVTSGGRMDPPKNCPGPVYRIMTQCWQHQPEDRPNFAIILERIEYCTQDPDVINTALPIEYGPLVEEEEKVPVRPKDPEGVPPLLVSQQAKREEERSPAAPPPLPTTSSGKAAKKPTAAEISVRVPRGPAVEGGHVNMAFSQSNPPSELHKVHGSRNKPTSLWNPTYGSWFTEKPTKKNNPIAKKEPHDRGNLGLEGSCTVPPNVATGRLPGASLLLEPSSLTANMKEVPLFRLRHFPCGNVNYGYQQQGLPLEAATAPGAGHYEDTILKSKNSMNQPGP
T2 sequence (O60674 whole entry): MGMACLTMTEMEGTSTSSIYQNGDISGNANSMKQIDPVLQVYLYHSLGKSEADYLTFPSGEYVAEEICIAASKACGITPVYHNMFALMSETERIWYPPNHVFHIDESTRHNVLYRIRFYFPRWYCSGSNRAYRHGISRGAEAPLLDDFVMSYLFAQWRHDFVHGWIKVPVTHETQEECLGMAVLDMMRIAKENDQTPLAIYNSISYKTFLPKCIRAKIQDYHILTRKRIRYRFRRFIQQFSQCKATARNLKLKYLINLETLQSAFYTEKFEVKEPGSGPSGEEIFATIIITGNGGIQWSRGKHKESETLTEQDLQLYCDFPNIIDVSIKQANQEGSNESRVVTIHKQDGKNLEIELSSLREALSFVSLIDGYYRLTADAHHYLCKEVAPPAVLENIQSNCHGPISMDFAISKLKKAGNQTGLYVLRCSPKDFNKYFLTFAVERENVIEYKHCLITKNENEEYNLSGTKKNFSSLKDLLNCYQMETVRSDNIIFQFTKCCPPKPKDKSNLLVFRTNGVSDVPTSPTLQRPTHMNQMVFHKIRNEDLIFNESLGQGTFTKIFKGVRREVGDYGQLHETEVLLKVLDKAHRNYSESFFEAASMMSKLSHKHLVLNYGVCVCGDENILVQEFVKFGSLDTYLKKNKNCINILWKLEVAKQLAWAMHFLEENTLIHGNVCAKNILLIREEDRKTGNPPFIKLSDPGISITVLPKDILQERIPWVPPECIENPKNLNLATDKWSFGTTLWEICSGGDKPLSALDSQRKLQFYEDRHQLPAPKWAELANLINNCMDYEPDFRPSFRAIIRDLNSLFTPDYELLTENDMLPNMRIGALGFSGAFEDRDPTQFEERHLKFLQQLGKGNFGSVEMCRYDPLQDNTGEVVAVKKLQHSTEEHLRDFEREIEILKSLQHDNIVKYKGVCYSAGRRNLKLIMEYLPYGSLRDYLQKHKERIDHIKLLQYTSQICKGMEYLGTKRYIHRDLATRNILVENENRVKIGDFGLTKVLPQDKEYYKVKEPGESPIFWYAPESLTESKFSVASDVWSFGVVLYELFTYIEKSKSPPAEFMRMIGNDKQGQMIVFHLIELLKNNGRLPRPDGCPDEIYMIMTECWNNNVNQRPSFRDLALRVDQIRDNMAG

SMILES | pIC50 (ALK) | pIC50 (JAK2)
COc1cc(N2CCN(C[C@H](C)O)CC2)ccc1Nc1ncc2ccc(-c3c(OC)cccc3OC)n2n1 [Example 543, (S)-1-(4-{4-[7-(2,6-Dimethoxy-phenyl)-pyrrolo[2,1-f][1,2,4]triazin-2-ylamino]-3-methoxy-phenyl}-piperazin-1-yl)-propan-2-ol] | > 7.00 | 5.00 to 6.00
COc1cc(N2CCC(N3CCOCC3)CC2)ccc1Nc1ncc2ccc(-c3ccccc3[S+](C)[O-])n2n1 (centres unmarked) [Example 544, [7-(2-Methanesulfinyl-phenyl)-pyrrolo[2,1-f][1,2,4]triazin-2-yl]-[2-methoxy-4-(4-morpholin-4-yl-piperidin-1-yl)-phenyl]-amine] | 6.00 to 7.00 | 6.00 to 7.00
COc1cc(N2CCN(C[C@H](C)O)CC2)ccc1Nc1ncc2ccc(-c3ccccc3[S+](C)[O-])n2n1 (stereo partly drawn) [Example 545, (S)-1-(4-{4-[7-(2-Methanesulfinyl-phenyl)-pyrrolo[2,1-f][1,2,4]triazin-2-ylamino]-3-methoxy-phenyl}-piperazin-1-yl)-propan-2-ol] | 6.00 to 7.00 | 6.00 to 7.00
COc1cc(N2CCC(N3CCOCC3)CC2)ccc1Nc1ncc2ccc(-c3cccc4c3OCCO4)n2n1 [Example 546, [7-(2,3-Dihydro-1,4-benzodioxin-5-yl)-pyrrolo[2,1-f][1,2,4]triazin-2-yl]-[2-methoxy-4-(4-morpholin-4-yl-piperidin-1-yl)-phenyl]-amine] | > 7.00 | > 7.00
COc1cc(N2CCN(C[C@H](C)O)CC2)ccc1Nc1ncc2ccc(-c3cccc4c3OCCO4)n2n1 [Example 547, (S)-1-(4-{4-[7-(2,3-Dihydro-1,4-benzodioxin-5-yl)-pyrrolo[2,1-f][1,2,4]triazin-2-ylamino]-3-methoxy-phenyl}-piperazin-1-yl)-propan-2-ol] | > 7.00 | > 7.00
CN1CCN(c2ccc(Nc3ncc4ccc(-c5cccc6c5OCCO6)n4n3)cc2)CC1 [Example 548, [7-(2,3-Dihydro-1,4-benzodioxin-5-yl)-pyrrolo[2,1-f][1,2,4]triazin-2-yl]-[4-(4-methyl-piperazin-1-yl)-phenyl]-amine] | > 7.00 | > 7.00
COc1cc(N2CCC(N3CCOCC3)CC2)ccc1Nc1ncc2ccc(-c3ccccc3CS(C)(=O)=O)n2n1 [Example 549, [7-(2-Methanesulfonylmethyl-phenyl)-pyrrolo[2,1-f][1,2,4]triazin-2-yl]-[2-methoxy-4-(4-morpholin-4-yl-piperidin-1-yl)-phenyl]-amine] | 6.00 to 7.00 | 5.00 to 6.00
COc1cc(C2CCN(C[C@@H](O)CO)CC2)c(F)cc1Nc1ncc2ccc(-c3ccccc3OC)n2n1 [Example 550, (R)-3-(4-{2-Fluoro-5-methoxy-4-[7-(2-methoxy-phenyl)-pyrrolo[2,1-f][1,2,4]triazin-2-ylamino]-phenyl}-piperidin-1-yl)-propane-1,2-diol] | > 7.00 | 6.00 to 7.00
COc1cc(C2CCN(C[C@@H](O)CO)CC2)c(F)cc1Nc1ncc2ccc(-c3ccccc3N(C)S(C)(=O)=O)n2n1 [Example 551, N-[2-(2-{4-[1-((R)-2,3-Dihydroxy-propyl)-piperidin-4-yl]-5-fluoro-2-methoxy-phenylamino}-pyrrolo[2,1-f][1,2,4]triazin-7-yl)-phenyl]-N-methyl-methanesulfonamide] | > 7.00 | 5.00 to 6.00
CC(C)(C)NS(=O)(=O)c1cccc(-c2ccc3cnc(Nc4ccc(N5CCOCC5)cc4)nn23)c1 [Example 561, N-tert-Butyl-3-[2-(4-morpholin-4-yl-phenylamino)-pyrrolo[2,1-f][1,2,4]triazin-7-yl]-benzenesulfonamide] | 6.00 to 7.00 | > 7.00
CC(C)(C)NS(=O)(=O)c1cccc(-c2ccc3cnc(Nc4ccc(N5CCC(N6CCNC(=O)C6)CC5)cc4)nn23)c1 [Example 562, N-tert-Butyl-3-(2-{4-[4-(3-oxo-piperazin-1-yl)-piperidin-1-yl]-phenylamino}-pyrrolo[2,1-f][1,2,4]triazin-7-yl)-benzenesulfonamide] | 6.00 to 7.00 | > 7.00
CS(=O)(=O)c1cccc(-c2ccc3cnc(N4CCC(Oc5cccc(N)c5)CC4)nn23)c1 [Example 563, 3-{1-[7-(3-Methanesulfonyl-phenyl)-pyrrolo[2,1-f][1,2,4]triazin-2-yl]-piperdin-4-yloxy}-phenylamine] | < 5.00 | 5.00 to 6.00
COc1ccccc1-c1ccc2cnc(Nc3ccc4oc(C)nc4c3)nn12 [Example 564, [7-(2-Methoxy-phenyl)-pyrrolo[2,1-f][1,2,4]triazin-2-yl]-(2-methyl-benzoxazol-5-yl)-amine] | 6.00 to 7.00 | > 7.00
CC(C)(C)NS(=O)(=O)c1cccc(-c2ccc3cnc(Nc4ccc(C5CCC(N6CCOCC6)CC5)cc4)nn23)c1 (centres unmarked) [Example 565, N-tert-Butyl-3-{2-[4-(4-morpholin-4-yl-cyclohexyl)-phenylamino]-pyrrolo[2,1-f][1,2,4]triazin-7-yl}-benzenesulfonamide] | 6.00 to 7.00 | > 7.00
CC(C)(C)NS(=O)(=O)c1cccc(-c2ccc3cnc(Nc4ccc(C5CCC(N6CCCC6)CC5)cc4)nn23)c1 (centres unmarked) [Example 566, N-tert-Butyl-3-{2-[4-(4-pyrrolidin-1-yl-cyclohexyl)-phenylamino]-pyrrolo[2,1-f][1,2,4]triazin-7-yl}-benzenesulfonamide] | 6.00 to 7.00 | > 7.00
CN(C)C1CCC(c2ccc(Nc3ncc4ccc(-c5cccc(S(=O)(=O)NC(C)(C)C)c5)n4n3)cc2)CC1 (centres unmarked) [Example 567, N-tert-Butyl-3-{2-[4-(4-dimethylamino-cyclohexyl)-phenylamino]-pyrrolo[2,1-f][1,2,4]triazin-7-yl}-benzenesulfonamide] | 6.00 to 7.00 | > 7.00
CC(C)(C)NS(=O)(=O)c1cccc(-c2ccc3cnc(Nc4ccc(C5CCC(O)CC5)cc4)nn23)c1 (centres unmarked) [Example 568, N-tert-Butyl-3-{2-[4-(4-hydroxy-cyclohexyl)-phenylamino]-pyrrolo[2,1-f][1,2,4]triazin-7-yl}-benzenesulfonamide] | 6.00 to 7.00 | > 7.00
CC(O)c1cccc(Nc2ncc3ccc(-c4cccc(S(=O)(=O)NC(C)(C)C)c4)n3n2)c1 (centres unmarked) [Example 569, N-tert-Butyl-3-{2-[3-(1-hydroxy-ethyl)-phenylamino]-pyrrolo[2,1-f][1,2,4]triazin-7-yl}-benzenesulfonamide] | 6.00 to 7.00 | > 7.00
CC(C)S(=O)(=O)c1cccc(-c2ccc3cnc(Nc4ccc(C5CCN(CC(N)=O)CC5)cc4)nn23)c1 [Example 570, 2-[4-(4-{7-[3-(Propane-2-sulfonyl)-phenyl]-pyrrolo[2,1-f][1,2,4]triazin-2-ylamino}-phenyl)-piperidin-1-yl]-acetamide] | 6.00 to 7.00 | > 7.00
CON=C1CCC(c2ccc(Nc3ncc4ccc(-c5cccc(S(=O)(=O)NC(C)(C)C)c5)n4n3)cc2)CC1 (centres unmarked) [Example 571, N-tert-Butyl-3-{2-[4-(4-methoxyimino-cyclohexyl)-phenylamino]-pyrrolo[2,1-f][1,2,4]triazin-7-yl}-benzenesulfonamide] | < 5.00 | > 7.00
Cc1nc2ccc(Nc3ncc4ccc(-c5cccc(S(=O)(=O)NC(C)(C)C)c5)n4n3)cc2s1 [Example 572, N-tert-Butyl-3-[2-(2-methyl-benzothiazol-6-ylamino)-pyrrolo[2,1-f][1,2,4]triazin-7-yl]-benzenesulfonamide] | < 5.00 | > 7.00
CC(C)(C)NS(=O)(=O)c1cccc(-c2ccc3cnc(Nc4ccc5ncsc5c4)nn23)c1 [Example 573, 3-[2-(Benzothiazol-6-ylamino)-pyrrolo[2,1-f][1,2,4]triazin-7-yl]-N-tert-butyl-benzenesulfonamide] | < 5.00 | > 7.00
Cc1nc2cc(Nc3ncc4ccc(-c5cccc(S(=O)(=O)NC(C)(C)C)c5)n4n3)ccc2s1 [Example 574, N-tert-Butyl-3-[2-(2-methyl-benzothiazol-5-ylamino)-pyrrolo[2,1-f][1,2,4]triazin-7-yl]-benzenesulfonamide] | 5.00 to 6.00 | > 7.00
CC(C)(C)NS(=O)(=O)c1cccc(-c2ccc3cnc(Nc4ccc5scnc5c4)nn23)c1 [Example 575, 3-[2-(Benzothiazol-5-ylamino)-pyrrolo[2,1-f][1,2,4]triazin-7-yl]-N-tert-butyl-benzenesulfonamide] | 5.00 to 6.00 | > 7.00
CON=C1CCC(c2ccc(Nc3ncc4ccc(-c5cccc(S(=O)(=O)C(C)C)c5)n4n3)cc2)CC1 (centres unmarked) [Example 576, 4-(4-{7-[3-(Propane-2-sulfonyl)-phenyl]-pyrrolo[2,1-f][1,2,4]triazin-2-ylamino}-phenyl)-cyclohexanone O-methyl-oxime] | 5.00 to 6.00 | > 7.00
CC(C)(C)NS(=O)(=O)c1cccc(-c2ccc3cnc(Nc4ccc(C5CN(CC(N)=O)C5)cc4)nn23)c1 [Example 577, 2-(3-{4-[7-(3-tert-Butylsulfamoyl-phenyl)-pyrrolo[2,1-f][1,2,4]triazin-2-ylamino]-phenyl}-azetidin-1-yl)-acetamide] | 6.00 to 7.00 | > 7.00
CS(=O)(=O)c1cccc(-c2ccc3cnc(Nc4ccc(C5CN(CC(N)=O)C5)cc4)nn23)c1 [Example 578, 2-(3-{4-[7-(3-Methanesulfonyl-phenyl)-pyrrolo[2,1-f][1,2,4]triazin-2-ylamino]-phenyl}-azetidin-1-yl)-acetamide] | 6.00 to 7.00 | > 7.00
COc1cc(-c2ccc3cnc(Nc4ccc(C5CCN(CC(N)=O)CC5)cc4)nn23)c(OC)nn1 [Example 580, 2-(4-{4-[7-(3,6-Dimethoxy-pyridazin-4-yl)-pyrrolo[2,1-f][1,2,4]triazin-2-ylamino]-phenyl}-piperidin-1-yl)-acetamide] | 6.00 to 7.00 | > 7.00

Source: patent US8471005B2 (Cephalon, Inc., priority 2008, dated 2013)
